Assay results from patent US10947213B1 (Merck Patent GmbH, priority 2015, dated 2021).

biological target: T1, TLR7/NFKb HEK cells (Homo sapiens, UniProt Q9NYK1); test: HEK Cell Assay (TLR7/NFKb reporter, Steady-Glo luciferase readout); format: cell-based; conditions: 30 min compound preincubation, then R*48 agonist for 5 hours, read-out: Potency
T1 construct: expressed in transfected cells; host or cells: HEK cells (TLR7/NFKb reporter line)
T1 sequence (Q9NYK1 27-1049): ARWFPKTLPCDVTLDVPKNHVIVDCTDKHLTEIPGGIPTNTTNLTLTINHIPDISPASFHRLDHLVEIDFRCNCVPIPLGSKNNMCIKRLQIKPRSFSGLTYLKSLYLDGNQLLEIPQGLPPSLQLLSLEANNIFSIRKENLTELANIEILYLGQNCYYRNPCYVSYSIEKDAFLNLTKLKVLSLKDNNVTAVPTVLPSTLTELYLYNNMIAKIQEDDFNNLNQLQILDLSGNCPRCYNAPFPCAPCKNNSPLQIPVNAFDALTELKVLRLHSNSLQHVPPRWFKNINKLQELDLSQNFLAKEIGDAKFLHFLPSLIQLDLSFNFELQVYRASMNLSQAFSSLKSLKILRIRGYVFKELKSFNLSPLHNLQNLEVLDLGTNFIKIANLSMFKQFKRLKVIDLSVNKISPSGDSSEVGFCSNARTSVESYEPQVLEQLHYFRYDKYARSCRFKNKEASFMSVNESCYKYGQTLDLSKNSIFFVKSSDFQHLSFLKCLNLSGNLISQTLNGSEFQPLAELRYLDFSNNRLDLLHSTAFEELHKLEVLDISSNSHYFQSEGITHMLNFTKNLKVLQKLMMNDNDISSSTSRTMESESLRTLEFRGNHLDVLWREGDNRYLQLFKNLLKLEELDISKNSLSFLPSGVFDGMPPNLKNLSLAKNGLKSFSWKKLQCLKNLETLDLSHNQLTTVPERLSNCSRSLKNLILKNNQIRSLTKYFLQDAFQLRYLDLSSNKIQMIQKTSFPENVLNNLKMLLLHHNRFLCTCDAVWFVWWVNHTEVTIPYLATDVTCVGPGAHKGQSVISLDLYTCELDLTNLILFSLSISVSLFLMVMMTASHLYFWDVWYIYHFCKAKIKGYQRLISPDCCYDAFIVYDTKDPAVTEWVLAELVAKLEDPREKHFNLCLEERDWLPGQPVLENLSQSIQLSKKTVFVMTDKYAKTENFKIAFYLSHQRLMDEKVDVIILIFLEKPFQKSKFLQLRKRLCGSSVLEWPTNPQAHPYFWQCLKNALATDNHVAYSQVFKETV
In short: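 Steady-Glo luminescence after 5 h stimulation with R*48 agonist, following 30 min compound preincubation. Assay run in HEK cells carrying a TLR7/NFKb luciferase reporter, plated at 5000 cells/well and grown 24 h at 37° C (10% CO2) before treatment.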

| IC50 [nM] | Compound |
| --- | --- |
| 1000 to 10000 | C[C@H]1C[C@@H](NC(=O)CC2CC2(F)F)CN(c2ccc(C(F)F)c3nccnc23)C1 (stereo partly drawn) [Compound 322, 2-(2,2-difluorocyclopropyl)-N-[(3R,5S)-1-[8-(difluoromethyl)quinoxalin-5-yl]-5-methylpiperidin-3-yl]acetamide] |
| 1000 to 10000 | CCN(CC)CCNCC1CCN(c2ccnc3cc(C(F)(F)F)ccc23)CC1 [Compound 376, N,N-Diethyl-N′-[1-(7-trifluoromethyl-quinolin-4-yl)-piperidin-4-ylmethyl]-ethane-1,2-diamine] |
| < 1000 | CC(C(=O)N[C@@H]1C[C@H](C)CN(c2ccc(C(F)(F)F)c3nccnc23)C1)N1CCC(O)CC1 (single isomer, unassigned) [Compound 372] |
| < 1000 | C[C@H]1C[C@@H](NC(=O)C2CC(F)(F)C2)CN(c2ccc(C(F)(F)F)c3ncccc23)C1 [Compound 247, 3,3-difluoro-N-[(3R,5S)-5-methyl-1-[8-(trifluoromethyl)quinolin-5-yl]piperidin-3-yl]cyclobutane-1-carboxamide] |
| < 1000 | C[C@H]1C[C@@H](NC(=O)CC2CCN(CC(F)F)CC2)CN(c2ccc(C#N)c3nccnc23)C1 [Compound 234, N-[(3R,5S)-1-(8-cyanoquinoxalin-5-yl)-5-methylpiperidin-3-yl]-2-[1-(2,2-difluoroethyl)piperidin-4-yl]acetamide] |
| 1000 to 10000 | N#Cc1ccc(N2C[C@H](NC(=O)N3C[C@@H](F)[C@@H](F)C3)C[C@H](C(F)(F)F)C2)c2cccnc12 [Compound 581, (3R,4S)-3,4-Difluoro-pyrrolidine-1-carboxylic Acid [(3R,5S)-1-(8-cyano-quinolin-5-yl)-5-trifluoromethyl-piperidin-3-yl]-amide] |
| < 1000 | CC(C(=O)NC1CN(c2ccc(C#N)c3nccnc23)CC(F)(F)C1)N1CCC1 (single isomer, unassigned) [Compound 507] |
| 1000 to 10000 | CCN(CC)CCNCC1CCN(c2ccnc3cc(C)ccc23)CC1 [Compound 389, N,N-Diethyl-N′-[1-(7-methyl-quinolin-4-yl)-piperidin-4-ylmethyl]-ethane-1,2-diamine] |
| < 1000 | C[C@H]1C[C@@H](NC(=O)CC2CN(C)C2)CN(c2ccc(C#N)c3nccnc23)C1 [Compound 359, N-[(3R,5S)-1-(8-cyanoquinoxalin-5-yl)-5-methylpiperidin-3-yl]-2-(1-methylazetidin-3-yl)acetamide] |
| < 1000 | C[C@H]1C[C@@H](NC(=O)C(N)C2CC2)CN(c2ccc(C(F)(F)F)c3ncccc23)C1 (stereo partly drawn) [Compound 282, 2-amino-2-cyclopropyl-N-[(3R,5S)-5-methyl-1-[8-(trifluoromethyl)quinolin-5-yl]piperidin-3-yl]acetamide] |
| 1000 to 10000 | C[C@@H]1CN(c2ccnc3nccnc23)C[C@H](CN2CCN(C)CC2)O1 [Compound 47, (2R,6S)-2-methyl-6-((4-methylpiperazin-1-yl)methyl)-4-(pyrido[2,3-b]pyrazin-8-yl)morpholine] |
| < 1000 | C[C@H]1C[C@@H](NC(=O)COCC2CCCO2)CN(c2ccc(C#N)c3nccnc23)C1 (stereo partly drawn) [Compound 166, N-[(3R,5S)-1-(8-cyanoquinoxalin-5-yl)-5-methylpiperidin-3-yl]-2-(oxolan-2-ylmethoxy)acetamide] |
| 1000 to 10000 | CNC(=O)[C@@H]1C[C@H](C)CN(c2ccc(C#N)c3nccnc23)C1 (relative stereo) [Compound 541, cis-1-(8-Cyano-quinoxalin-5-yl)-5-methyl-piperidine-3-carboxylic acid methylamide] |
| < 1000 | C[C@H]1C[C@@H](NCC(=O)N2CCC2)CN(c2ccc(C(F)(F)F)c3ncccc23)C1 [Compound 568, 1-Azetidin-1-yl-2-[(3R,5S)-5-methyl-1-(8-trifluoromethyl-quinolin-5-yl)-piperidin-3-ylamino]-ethanone] |
| 1000 to 10000 | C[C@@H]1CN(c2ccnc3nccnc23)C[C@H](C(=O)N[C@@H]2CCCNC2)O1 [Compound 64, (2R,6R)-6-methyl-N—((R)-piperidin-3-yl)-4-(pyrido[2,3-b]pyrazin-8-yl)morpholine-2-carboxamide] |
